# Experimental data as given in patent US20250205230A1 (priority 2022, published 2025).
# Columns and labels:
# VSV-G = format: cell-based, vesicular stomatitis Indiana virus (VSV)
# VSV-G glycoprotein = format: cell-based, vesicular stomatitis Indiana virus (VSV)
smiles,measurement,setting,value
"CN(N=Cc1ccc(O)c(O)c1)c1nc(-c2ccccc2)cc(-c2ccccc2)n1 [MK-28, 4-((2-(4,6-diphenylpyrimidin-2-yl)-2-methylhydrazineylidene)methyl) benzene-1,2-diol]",Endo H-resistance of VSV-G,VSV-G,decreased considerably
same,Endo H-resistance of VSV-G relative to untreated control cells,VSV-G glycoprotein,about half the resistance of untreated control cells
